Experimental data reported in ChEMBL document CHEMBL1833895, “Synthesis and biological activity of desmethoxy analogues of coruscanone A” (Bioorg Med Chem Lett, 2011).

Legend:
Candida albicans [1] = experiment: Antifungal activity against Candida albicans ATCC 44859 after 48 hrs by microdilution method; type: functional; settings: ATCC 44859, 48 h
Candida albicans [2] = experiment: Antifungal activity against Candida albicans ATCC 90028 after 24 hrs by microdilution method; type: functional; settings: ATCC 90028, 24 h
Candida albicans [3] = experiment: Antifungal activity against Candida albicans ATCC 90028 after 48 hrs by microdilution method; type: functional; settings: ATCC 90028, 48 h
Candida parapsilosis [4] = experiment: Antifungal activity against Candida parapsilosis ATCC 22019 after 24 hrs by microdilution method; type: functional; settings: Lodderomyces parapsilosis, ATCC 22019, 24 h
Candida parapsilosis [5] = experiment: Antifungal activity against Candida parapsilosis ATCC 22019 after 48 hrs by microdilution method; type: functional; settings: Lodderomyces parapsilosis, ATCC 22019, 48 h
Pichia kudriavzevii [6] = experiment: Antifungal activity against Candida krusei ATCC 6258 after 24 hrs by microdilution method; type: functional; settings: ATCC 6258, 24 h
Pichia kudriavzevii [7] = experiment: Antifungal activity against Candida krusei ATCC 6258 after 48 hrs by microdilution method; type: functional; settings: ATCC 6258, 48 h
Pichia kudriavzevii [8] = experiment: Antifungal activity against Candida krusei E28 after 24 hrs by microdilution method; type: functional; settings: E28, 24 h
Pichia kudriavzevii [9] = experiment: Antifungal activity against Candida krusei E28 after 48 hrs by microdilution method; type: functional; settings: E28, 48 h
Candida tropicalis [10] = experiment: Antifungal activity against Candida tropicalis 156 after 24 hrs by microdilution method; type: functional; settings: Candida tropicalis, 156, 24 h
Candida tropicalis [11] = experiment: Antifungal activity against Candida tropicalis 156 after 48 hrs by microdilution method; type: functional; settings: Candida tropicalis, 156, 48 h
Nakaseomyces glabratus [12] = experiment: Antifungal activity against Candida glabrata 20/I after 24 hrs by microdilution method; type: functional
Nakaseomyces glabratus [13] = experiment: Antifungal activity against Candida glabrata 20/I after 48 hrs by microdilution method; type: functional
Clavispora lusitaniae [14] = experiment: Antifungal activity against Candida lusitaniae 2446/I after 24 hrs by microdilution method; type: functional
Clavispora lusitaniae [15] = experiment: Antifungal activity against Candida lusitaniae 2446/I after 48 hrs by microdilution method; type: functional
Trichosporon asahii [16] = experiment: Antifungal activity against Trichosporon asahii 1188 after 24 hrs by microdilution method; type: functional; settings: Trichosporon asahii, 1188, 24 h
Trichosporon asahii [17] = experiment: Antifungal activity against Trichosporon asahii 1188 after 48 hrs by microdilution method; type: functional; settings: Trichosporon asahii, 1188, 48 h
Aspergillus fumigatus [18] = experiment: Antifungal activity against Aspergillus fumigatus 231 after 24 hrs by microdilution method; type: functional, organism-based; settings: Aspergillus fumigatus, 231, 24 h
Aspergillus fumigatus [19] = experiment: Antifungal activity against Aspergillus fumigatus 231 after 48 hrs by microdilution method; type: functional, organism-based; settings: Aspergillus fumigatus, 231, 48 h
Lichtheimia corymbifera [20] = experiment: Antifungal activity against Absidia corymbifera 272 after 24 hrs by microdilution method; type: functional, organism-based; settings: Lichtheimia corymbifera, 272, 24 h
Lichtheimia corymbifera [21] = experiment: Antifungal activity against Absidia corymbifera 272 after 48 hrs by microdilution method; type: functional, organism-based; settings: Lichtheimia corymbifera, 272, 48 h
Candida albicans [22] = experiment: Antifungal activity against Candida albicans ATCC 44859 after 24 hrs by microdilution method; type: functional; settings: ATCC 44859, 24 h
[23] = system: Trichophyton mentagrophytes; experiment: Antifungal activity against Trichophyton mentagrophytes 445 after 72 hrs by microdilution method; type: functional, organism-based; settings: Trichophyton mentagrophytes, 445, 72 h
[24] = system: Trichophyton mentagrophytes; experiment: Antifungal activity against Trichophyton mentagrophytes 445 after 120 hrs by microdilution method; type: functional, organism-based; settings: Trichophyton mentagrophytes, 445, 120 h
L1210 = experiment: Cytostatic activity against mouse L1210 cells at 10 umol/L after 72 hrs by XTT assay; type: ADME, cell-based; settings: l1210, 72 h, 10 µM
HL-60 = experiment: Cytostatic activity against human HL60 cells at 10 umol/L after 72 hrs by XTT assay; type: ADME, cell-based; settings: hl-60, 72 h, 10 µM
[25] = Cytostatic activity against human HeLaS3 cells at 10 umol/L after 48 hrs by XTT assay; type: ADME, cell-based; settings: hela s3, 48 h, 10 µM
CCRF-CEM = experiment: Cytostatic activity against human CCRF-CEM cells after 72 hrs by XTT assay; type: ADME, cell-based
HT-29 = experiment: Cytostatic activity against human HT-29 cells at 10 umol/L after 72 hrs by XTT assay; type: ADME, cell-based; settings: ht-29, 72 h, 10 µM
[26] = Cytostatic activity against human COLO201 cells at 10 umol/L after 72 hrs by XTT assay; type: ADME, cell-based; settings: colo 201, 72 h, 10 µM

Compound	IC80 (Candida albicans [1]) [µM]	IC80 (Candida albicans [2]) [µM]	IC80 (Candida albicans [3]) [µM]	IC80 (Candida parapsilosis [4]) [µM]	IC80 (Candida parapsilosis [5]) [µM]	IC80 (Pichia kudriavzevii [6]) [µM]	IC80 (Pichia kudriavzevii [7]) [µM]	IC80 (Pichia kudriavzevii [8]) [µM]	IC80 (Pichia kudriavzevii [9]) [µM]	IC80 (Candida tropicalis [10]) [µM]	IC80 (Candida tropicalis [11]) [µM]	IC80 (Nakaseomyces glabratus [12]) [µM]	IC80 (Nakaseomyces glabratus [13]) [µM]	IC80 (Clavispora lusitaniae [14]) [µM]	IC80 (Clavispora lusitaniae [15]) [µM]	IC80 (Trichosporon asahii [16]) [µM]	IC80 (Trichosporon asahii [17]) [µM]	IC80 (Aspergillus fumigatus [18]) [µM]	IC80 (Aspergillus fumigatus [19]) [µM]	IC80 (Lichtheimia corymbifera [20]) [µM]	further results
O=C1C=CC(=O)C1=Cc1ccccc1	1.95	3.9	7.81	3.9	3.9	3.9	3.9	3.9	7.81	3.9	3.9	7.81	7.81	7.81	15.6	1.95	3.9	15.6	31.2	250	IC80 (Lichtheimia corymbifera [21]): 250 µM; IC80 (Candida albicans [22]): 1.95 µM; IC80 [23]: 1.95 µM; IC50 [24]: 3.9 µM; Activity (L1210): Non-toxic; Activity (HL-60): Non-toxic; Activity [25]: Non-toxic; IC50 (CCRF-CEM): 2.6 µM; Activity (HT-29): Non-toxic; Activity [26]: Non-toxic
COc1ccc(C=C2C(=O)C=CC2=O)cc1	7.81	7.81	7.81	7.81	15.6	3.9	3.9	3.9	7.81	7.81	7.81	7.81	7.81	7.81	31.2	7.81	31.2	15.6	31.2	> 250	IC80 (Lichtheimia corymbifera [21]): > 250 µM; IC80 (Candida albicans [22]): 3.9 µM; IC80 [23]: 3.9 µM; IC50 [24]: 7.81 µM; Activity (L1210): Non-toxic; Activity (HL-60): Non-toxic; Activity [25]: Non-toxic; IC50 (CCRF-CEM): 3.8 µM; Activity (HT-29): Non-toxic; Activity [26]: Non-toxic
Cc1ccc(C=C2C(=O)C=CC2=O)cc1	7.81	3.9	15.6	15.6	15.6	7.81	15.6	15.6	15.6	7.81	15.6	15.6	15.6	15.6	15.6	15.6	62.5	31.2	125	> 250	IC80 (Lichtheimia corymbifera [21]): > 250 µM; IC80 (Candida albicans [22]): 3.9 µM; IC80 [23]: 125 µM; IC50 [24]: > 250 µM; Activity (L1210): Non-toxic; Activity (HL-60): Non-toxic; Activity [25]: Non-toxic; IC50 (CCRF-CEM): 2.7 µM; Activity (HT-29): Non-toxic; Activity [26]: Non-toxic
O=C1C=CC(=O)C1=Cc1ccc(Cl)cc1	31.2	31.2	31.2	31.2	31.2	31.2	31.2	31.2	62.5	31.2	31.2	62.5	62.5	31.2	31.2	31.2	62.5	62.5	62.5	> 125	IC80 (Lichtheimia corymbifera [21]): > 125 µM; IC80 (Candida albicans [22]): 7.81 µM; IC80 [23]: 125 µM; IC50 [24]: > 125 µM; Activity (L1210): Non-toxic; Activity (HL-60): Non-toxic; Activity [25]: Non-toxic; IC50 (CCRF-CEM): 6.1 µM; Activity (HT-29): Non-toxic; Activity [26]: Non-toxic
O=C1C=CC(=O)C1=C/C=C/c1ccccc1	1.95	15.6	15.6	3.9	7.81	3.9	7.81	15.6	15.6	7.81	15.6	15.6	31.2	7.81	15.6	7.81	15.6	31.2	31.2	> 125	IC80 (Lichtheimia corymbifera [21]): > 125 µM; IC80 (Candida albicans [22]): 1.95 µM; IC80 [23]: 7.81 µM; IC50 [24]: 62.5 µM; Activity (L1210): Non-toxic; Activity (HL-60): Non-toxic; Activity [25]: Non-toxic; IC50 (CCRF-CEM): 4.4 µM; Activity (HT-29): Non-toxic; Activity [26]: Non-toxic
OC(Cn1cncn1)(Cn1cncn1)c1ccc(F)cc1F [FLUCONAZOLE]	2	0.8	3.3	6.5	13	> 50	> 50	> 50	> 50	3	5	22	> 50	3.3	3.3	4	9	> 50	> 50	> 50	IC80 (Lichtheimia corymbifera [21]): > 50 µM; IC80 (Candida albicans [22]): 1 µM; IC80 [23]: 17 µM; IC50 [24]: 26 µM
